Assay results as given in patent US5284759A, “Biological production of acetal or ketal substituted benzene compounds” (Minnesota Mining and Manufacturing Company, priority 1992, dated 1994).
In brackets after ≈: the same amount, converted by molar mass.

Experiments:
[1] = solubility of substrates in MSB buffer; assay type: physicochemical
Excerpt: (§1) Two significant parameters of each substrate tested were toxicity and water solubility. The combined effects of those parameters will influence the maximum rate of biotransformation by the microbial culture. Methods were developed to examine the effects of substrate concentration on the rate of biotransformation and cell growth. The rates of biotransformation were apparently independent of the substrates' water solubility. For example, the solubilities of bromobenzene, acetophenone, and 1-phenyl-1,2-ethanediol in MSB buffer (at 30° C.) are approximately 400 mg/liter, 2000 mg/liter, and 5000 mg/liter, respectively. Bromobenzene, one of the least water-soluble substrates tested, was transformed to its dihydrodiol by strain F39/D at an average rate of about 20 mg/liter/hour. […] Substrate toxicity was determined by examining the growth rate of strain F39/D in the presence of the test compounds.

[2] = system: Pseudomonas putida strain F39/D; experiment: substrate toxicity: growth of strain F39/D in the presence of the test compounds; assay type: cell-based
Excerpt: as §1

[3] = system: Pseudomonas putida strain F39/D; experiment: rate of biotransformation of substrate to its dihydrodiol by strain F39/D; assay type: cell-based
Excerpt: as §1
Biotransformation preferably involves the addition of the starting substrate to an induced microbial cell suspension. The microorganisms are then allowed to grow such that the enzyme, arene 2,3-dioxygenase may act on the substrate. The induced microorganisms are prepared as described above. […]

| SMILES | solubility in MSB buffer ([1]; msb buffer) [mg/mL] | growth of the microbes ([2]; 1000 mg/l (one-half saturated level)) | solubility in MSB buffer ([1]; MSB buffer, 30° C.) | average rate of transformation to its dihydrodiol [3] | rate of transformation compared with acetophenone or 1-phenylethanediol ([3]; relative to acetophenone or 1-phenylethanediol transformation) | growth of the microbes ([2]; 400 mg/l (saturated level)) |
| --- | --- | --- | --- | --- | --- | --- |
| OCC(O)c1ccccc1 (stereo not shown) [1-phenyl-1,2-ethanediol] | ~5 (≈ 36.2 mM) | – | – | – | – | – |
| CC(=O)c1ccccc1 [acetophenone] | ~2 (≈ 16.6 mM) | completely inhibited | – | – | – | – |
| Brc1ccccc1 [bromobenzene] | – | – | approximately 400 mg/liter | about 20 mg/liter/hour | much greater than that of acetophenone or 1-phenylethanediol transformation | apparently unaffected |
